Measurements: ChEMBL document CHEMBL1201862, “PubChem BioAssay data set” (2004)
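Exposure lasted 48 hours, with cells grown in 96-well plates and compounds tested at five concentrations. Here, GI50 denotes the concentration required for 50% inhibition of growth.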 The source made the active and inactive calls. Rule as the data show it: active = GI50 up to about 1.1 µM and inactive = higher.

How the values were obtained:
Experiment in all cases: NCI-60 cell line screen, 48 h
DLD-1 = tested on: DLD-1
DMS-273 = tested on: DMS-273
HOP-18 = tested on: HOP-18
KM-20L2 = tested on: KM-20L2
LXFL 529 = tested on: LXFL 529
M19-MEL = tested on: M19-MEL
RXF 631 = tested on: RXF 631
SNB-78 = tested on: SNB-78
BT-549 = tested on: BT-549

| SMILES | GI50 (DLD-1) | GI50 (DMS-273) | GI50 (HOP-18) | GI50 (KM-20L2) | GI50 (LXFL 529) | GI50 (M19-MEL) | GI50 (RXF 631) | GI50 (SNB-78) | GI50 (BT-549) |
| --- | --- | --- | --- | --- | --- | --- | --- | --- | --- |
| CCOP(=O)(OCC)C1CCCOC1=O (centres undefined) | > 100 µM (inactive) | > 100 µM (inactive) | > 100 µM (inactive) | > 100 µM (inactive) | > 100 µM (inactive) | > 100 µM (inactive) | > 100 µM (inactive) | > 100 µM (inactive) | – |
| CC(=O)n1c(=O)c2cc3c(=O)n(-c4cccc(C#N)c4)c(=O)c3cc2c1=O | > 100 µM (inactive) | 88.1 µM (inactive) | > 100 µM (inactive) | > 100 µM (inactive) | > 100 µM (inactive) | > 100 µM (inactive) | > 100 µM (inactive) | 60.3 µM (inactive) | – |
| CCOC(=O)C1=C(C)NC2=C(C(=O)N(c3ccccc3)C2c2ccccc2)C1c1ccccc1 (centres undefined) | 16.5 µM (inactive) | – | 20.4 µM (inactive) | – | 16 µM (inactive) | 17.3 µM (inactive) | 16.1 µM (inactive) | 19.4 µM (inactive) | – |
| COc1cc(-c2nn3c(=O)n(-c4ccc(Cl)cc4)c(=O)nc3s2)cc(OC)c1OC | > 86.9 µM (inactive) | 23.2 µM (inactive) | 57 µM (inactive) | > 100 µM (inactive) | – | > 100 µM (inactive) | 48.1 µM (inactive) | 19.4 µM (inactive) | – |
| C(=C\C(Sc1ccccc1)c1ccccc1)/NNC1=NN=C(c2ccccc2)C(c2ccccc2)N1 (centres undefined) | 18.2 µM (inactive) | 44.6 µM (inactive) | > 100 µM (inactive) | 24.8 µM (inactive) | – | 27.7 µM (inactive) | 30.5 µM (inactive) | > 100 µM (inactive) | – |
| CC(=O)O[C@@]12CO[C@@H]1C[C@H](O)[C@@]1(C)C(=O)[C@H](O)C3=C(C)[C@@H](OC(=O)[C@H](O)[C@@H](NC(=O)OC(C)(C)C)c4ccccc4)C[C@@](O)([C@@H](OC(=O)c4ccccc4)[C@H]21)C3(C)C [DOCETAXEL] | < 0.01 µM (active) | < 0.01 µM (active) | 29.9 µM (inactive) | < 0.01 µM (active) | < 0.01 µM (active) | < 0.01 µM (active) | < 0.01 µM (active) | – | 0.00342 µM (active) |
